Assay results taken from EP1348714B1, “Polypeptide useful as anti-allergic/antiasthmatic, methods for the preparation thereof and pharmaceutical compositions containing such polypeptide and their use” (COUNCIL OF SCIENTIFIC AND INDUSTRIAL RESEARCH, priority 2002, dated 2003).
Square brackets hold non-standard residues; d marks the D form. Peptide text beside a SMILES is read from it. Sar = CNCC(=O)O

Key:
[1] = other pharmacological studies (cardiovascular, CNS, anti-inflammatory, diuretic); assay type: in vivo; settings: up to a dose of 10 mg/kg
[2] = system: Normal mast cells (Noninnunological: Comp. 48/80); experiment: mast cell degranulation by comp 48/80 in normal mast cells; assay type: in vivo, rats; settings: dose 50.0 pro (10.0 x 5 d) mg/kg x days
Egg-albumin = experiment: aerosol test, egg-albumin challenge in sensitised guinea pigs; assay type: in vivo; settings: dose 50 mg/kg (ip)
[3] = system: sensitised guinea pig ileum; experiment: antigen (egg albumin) induced contraction of sensitised guinea pig ileum (Schultz-Dale phenomenon)
[4] = system: Sensitised mast cells (Immunological: Egg albumin); experiment: mast cell degranulation by egg albumin in sensitised mast cells; assay type: in vivo, rats; settings: dose 50.0 pro (10.0 x 5 d) mg/kg x days
[5] = system: passive cutaneous anaphylaxis (PCA); experiment: passive cutaneous anaphylaxis (PCA) test in rats; assay type: in vivo

| SMILES | cardiovascular, Central Nervous System (CNS), anti-inflammatory, diuretic activities [1] | % Protection [2] [%] | % Protection Egg-albumin (Egg-albumin) [%] | % Protection to ileum contraction induced by egg albumin ([3]; concentration 1.0 (unit not given)) | % Protection to ileum contraction induced by egg albumin ([3]; concentration 2.0 (unit not given)) [%] | % Protection to ileum contraction induced by egg albumin ([3]; concentration 3.0 (unit not given)) [%] | % Protection [4] [%] | anti PCA activity ([5]; rat, 50 mg/kg by nasal route) [%] | % Anti-PCA activity ([5]; rats, dose 50.0 mg/kg (IP)) [%] |
| --- | --- | --- | --- | --- | --- | --- | --- | --- | --- |
| C[C@H](N)C(=O)NCC(=O)NCC(=O)N[C@@H](CC(=O)O)C(=O)N(C)CC(=O)N[C@@H](CCCCN)C(=O)O [96/199, L-alanyl-glycyl-glycyl-L-aspartyl-sar-L-1ys] (H-AGGD[Sar]K-OH) | No significant effects | – | – | – | – | – | – | – | – |
| O=C([O-])c1cc(=O)c2c(OCC(O)COc3cccc4oc(C(=O)[O-])cc(=O)c34)cccc2o1.[Na+].[Na+] [DSCG, disodium cromoglycate] | – | 72 | 64 | No block | 18 | 59 | 71 | 81 | 77 |
